Reference: patent US20100173865A1, “Anti-Cancer Agent-Hyaluronic Acid Conjugate Compositions and Methods” (priority 2007, published 2010)

Columns and labels:
[1] = test system: OSC19-luciferase xenografts; experiment: Orthotopic nude mouse model of oral tongue SCC, OSC19-luciferase; assay type: in vivo, nude mice
[2] = test system: OSC19-luciferase cell line; experiment: MTT cell proliferation assay; assay type: cell-based; conditions: Homo sapiens, 72 h, 3-day incubation, read-out: IC50 (growth inhibition, MTT)
Method: (§1) To test the ability of paclitaxel and HA-paclitaxel to inhibit the proliferation of all human squamous cancer cell lines in vitro, a 3-(4,5-dimethylthiazol-2-yl)-2,5-diphenyltetrazolium bromide (MTT) assay was used. Two thousand cells per well were grown in DMEM medium supplemented with 10% FBS in 96-well tissue culture plates. After 24 h, the cells were treated with various concentrations of paclitaxel or HA-paclitaxel in DMEM medium supplemented with 2% FBS. To measure the number of metabolically active cells after a 3-day incubation period, an MTT assay as measured by a 96-well microtiter plate reader (MR-5000; Dynatech Laboratories Inc, Chantilly, Va.) at an optical density of 570 nm was used.
(§2) Quantified results of PCNA, CD31, and tumor volume were compared with Kruskal-Wallis and Wilcoxon rank-sum test, as appropriate. Survival was analyzed with the Kaplan-Meier method. Differences between the treatment and control groups were compared with the log-rank test. A two-tailed p<0.05 was considered significant.

HN5 cell line = experiment: MTT cell proliferation assay; assay type: cell-based; conditions: Homo sapiens, 72 h, 3-day incubation, read-out: IC50 (growth inhibition, MTT)
Method: as §1, §2

HN5 xenografts = experiment: Orthotopic nude mouse model of oral tongue SCC, HN5; assay type: in vivo, nude mice
NMP-1 xenografts = experiment: NMP-1 orthotopic (intraperitoneal) ovarian carcinoma xenograft, survival and MR imaging; assay type: in vivo, nude mice; conditions: for T/C / Mean Day of Survival/Sacrifice: qd7 × 3 i.p. from Day 7; for Mean Day of Survival/Sacrifice: mean ± SEM
Method: On Day 0, about 1×10^7 viable NMP-1 cells were injected into the peritoneal cavities of groups of 6 to 9-week-old female nude mice (Harlan Sprague Dawley, Indianapolis, Ind.). Five or more mice per experimental group were used as the basis for statistical analyses. Administration of drugs was initiated 1 week later (Day 7). […] NMP-1-implanted mice develop marked ascites as one of the earliest clinical signs of peritoneal tumor and before other aspects of tumor progression are apparent; ascitic fluid was repeatedly removed at intervals from mice, beginning around the fourth week. […] For any tumor-bearing mice that succumbed between daily observations and before the opportunity to sacrifice them, the day of death was considered to be the day before the date they were discovered as deceased. The day of humane sacrifice/death was recorded for each mouse, and these values were compared among control and treatment groups by paired or unpaired Student's t-tests for the survival analyses.
MRI studies were conducted in the MDACC Small Animal Imaging Facility (SAIF). […] Klostergaard, J., et al., Magnetic Resonance Imaging-Based Prospective Detection of Intraperitoneal Human Ovarian Carcinoma Xenografts Treatment Response, Int J Gynecol Cancer, 2006, 16 Suppl 1:111-7. Respiratory-gated, T2-weighted (TE: 45.0 ms, TR: 1215.6 ms, 0.5 mm thickness, 0.3 mm space between images) coronal images were used for initial evaluation of tumor distribution and growth in these models; images of the abdomens of these mice were acquired using a Bruker 4.7 T, 40 cm Biospec MR scanner (Bruker Biospin USA, Billerica, Mass.).
In the NMP-1 studies, mice were held for survival endpoints. In the SKOV-3ip studies, tumor measurements were performed using the Image J program (National Institutes of Health, USA). Regions of interest (ROI) were drawn on each image that contained tumor and then multiplied by slice thickness to obtain the tumor volume. […] To avoid overestimation of tumor size, one half of the volume from the most dorsal and ventral images containing tumor were used in the volume analysis. Assuming a tumor density of 1 g/ml, tumor volumes (mm^3) were converted to weight (g) for analysis.

[3] = plasma; IP administration; data from Banzato et al.; cited from earlier work
[4] = test system: CD31/PECAM (microvessel density); experiment: Microvessel density by CD31 staining of tumor sections; assay type: in vivo, nude mice; conditions: weekly i.v. injections
Method: Frozen tissues were sectioned into 8- to 10-μm slices and used for detection of CD31/platelet/endothelial cell adhesion molecule 1 (CD31/PECAM). The slices were mounted on positively charged Plus slides (Fisher Scientific, Pittsburgh, Pa.) and air-dried for 30 minutes; fixed sequentially in cold acetone (5 minutes), 1:1 acetone/chloroform (v/v; 5 minutes), and acetone (5 minutes), and then washed with PBS. Immunohistochemical procedures were done as described previously with the primary antibody diluted 1:400. Peroxidase-conjugated secondary antibody was used for immunohistochemical analysis of CD31/PECAM. Bleaching of fluorescence was minimized by covering the slides with 90% glycerol and 10% PBS. The slides were incubated with stable 3,3′-diaminobenzidine for 10 to 20 minutes and then examined for the presence of CD31/PECAM. The sections were rinsed with distilled water, counterstained with Gill's hematoxylin for 1 minute, and mounted with Universal Mount (Research Genetics, Huntsville, Ala.).
To quantify microvessel density (MVD), areas containing higher numbers of tumor-associated blood vessels were identified at low microscopic power (100×). Vessels completely stained with anti-CD31 antibodies were counted in three random 0.04-mm^2 fields per slide at 200× magnification.

Structure (SMILES): CC(=O)O[C@H]1C(=O)[C@@]2(C)[C@H]([C@H](OC(=O)c3ccccc3)[C@]3(O)C[C@H](OC(=O)[C@H](O)[C@@H](NC(=O)c4ccccc4)c4ccccc4)C(C)=C1C3(C)C)[C@]1(OC(C)=O)CO[C@@H]1C[C@@H]2O [Taxol, Paclitaxel]
- Median survival time ([1]; OSC19-luciferase, 3 weekly i.v. injections, control 30 days): 60 days
- Reduction of bioluminescence as opposed to control ([1]; OSC19-luciferase, one week after the last treatment): 86.5%
- Reduction of tumor growth ([1]; OSC19, one week after the last of 3 weekly i.v. treatments, HA-paclitaxel 120 mg/kg paclitaxel equivalent, paclitaxel 10 mg/kg): 64.2%
- IC50 [2]: 2.16 nM
- IC50 (HN5 cell line): 4.58 nM
- Median survival time (HN5 xenografts; 3 weekly i.v. injections, control 26 days): 40 days
- Reduction of tumor growth (HN5 xenografts; one week after the last of 3 weekly i.v. treatments, HA-paclitaxel 120 mg/kg paclitaxel equivalent, paclitaxel 10 mg/kg): 63.8%
- T/C (NMP-1 xenografts; 10 mg/kg): ~105
- Mean Day of Survival/Sacrifice (NMP-1 xenografts; 10 mg/kg): 32.6 ± 5.6 days
- T/C (NMP-1 xenografts; 15 mg/kg): ~120
- Mean Day of Survival/Sacrifice (NMP-1 xenografts; 15 mg/kg): 37.6 ± 9.3 days
- Activity by MR imaging and survival criteria (NMP-1 xenografts; multiple-dose regimens, 10 or 15 mg/kg): essentially inactive
- AUC [3]: 144 µg·h/mL
- Effect on microvessel density (MVD) [4]: no effect on MVD
